This note sets out measurements from patent US20240018153A1, “BENZENESULFONAMIDE DERIVATIVES AND USES THEREOF” (2692372 ONTARIO, INC., priority 2020, published 2024).

Bounds are passed on as bounds.

One test concerns the target BTK (Homo sapiens (Human), UniProt Q06187). Kind of test: HTRF KinEASE-TK kinase assay, BTK. Type of test: biochemical. The note with it: 3 h preincubation; for remaining activity at 1 µM: 1 μM compound, read-out: % BTK Remaining activity vs DMSO (1 μM, 3 h); for remaining activity at 10 µM: 10 μM compound, read-out: % BTK Remaining activity vs DMSO (10 μM, 3 h); for IC50: dose response, read-out: BTK Inhibition IC50. An outline of the steps: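 BTK activity in HTRF KinEASE-TK format, buffer containing 10 mM MnCl2, 5 mM MgCl2, 1 uM ATPγS and 1 mM TCEP; 45 min reaction with biotinylated substrate and ATP.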
In general terms: In TR-FRET formats the signal depends on donor and acceptor labels being close together.

Another test concerns the target JAK3 (Homo sapiens (Human), UniProt P52333). Briefly: HTRF KinEASE-TK kinase assay, JAK3. The following applies: for remaining activity at 1 µM: read-out: % JAK3 Remaining activity vs DMSO (1 μM, 3 h); for remaining activity at 10 µM: read-out: % JAK3 Remaining activity vs DMSO (10 μM, 3 h). Type of test: biochemical. The procedure, abridged: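 Promega JAK3 at 0.21 nM was preincubated with inhibitor for 3 h at room temperature before biotinylated substrate and ATP were added. The reaction was stopped with EDTA detection buffer containing 31.25 nM SA-XL665 and Eu-antibody. After 60 min, the HTRF 665/620 nm emission ratio reflected substrate phosphorylation.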

A further test has as its target BMX (Homo sapiens (Human), UniProt P51813). Briefly: HTRF KinEASE-TK kinase assay, BMX. The following applies: for remaining activity at 1 µM: 1 uM compound; for remaining activity at 1 µM / remaining activity at 10 µM: 3 h preincubation; for remaining activity at 10 µM: 10 uM compound. Type of test: biochemical. An outline of the steps:
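Purchased BMX (0.333 ng/ul, 3.03 nM) was preincubated with or without inhibitor for 3 h at room temperature, then biotinylated substrate and ATP were added. Reactions were stopped with EDTA-containing buffer holding 31.25 nM SA-XL665 and Eu-antibody, and after 60 min phosphorylation was read as the HTRF 665/620 nm emission ratio.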

Another test has as its target FGFR4 (Homo sapiens (Human), UniProt P22455). Briefly: HTRF KinEASE-TK kinase assay, FGFR4. Format: biochemical. The note with it: for IC50: dose response; for remaining activity at 1 µM: read-out: % FGFR4 Remaining activity vs DMSO (1 μM, 3 h); for remaining activity at 10 µM: read-out: % FGFR4 Remaining activity vs DMSO (10 μM, 3 h). The procedure, abridged: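 Promega FGFR4 at 0.333 ng/ul (5.12 nM) preincubated with or without inhibitor for 3 h at room temperature, then reaction started with biotinylated substrate and ATP. Stopped with EDTA detection buffer containing 31.25 nM SA-XL665 and Eu-antibody; after 60 min, HTRF 665/620 nm ratio read as substrate phosphorylation.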

In test [1] the target is T1, EGFR (Homo sapiens (Human), UniProt P00533). Briefly: A549 cell lysis and immunoassay, phospho-EGFR (Y1068) inhibition. Format: cell-based. The arrangement: key: X: EGFR bound and autophosphoration of EGFR inhibited in cells. The following applies: A549 cells. As to the method:
A549 cells (ATCC) were cultured in Dulbecco's Modified Eagle's Medium (DMEM) (Wisent) supplemented with 10% FBS and 1% penicillin/streptomycin. Cells were seeded in 6-well plates at 530,000 cells/well and incubated at 37° C., 5% CO2 for 16 hours. Cells were starved in DMEM containing 1% FBS for 4 hours before they were treated with the indicated concentrations of compound or DMSO alone and incubated at 37° C., 5% CO2 for 24 hours. Prior to cell harvest and lysis, 50 ng/ml human epidermal growth factor (hEGF) (Sigma) was added to the cells and incubated at 37° C., 5% CO2 for 10 minutes. Conditioned media was discarded, and adherent cells were washed with PBS before they were scraped on ice. Cell suspensions were centrifugated at 2,000 RPM for 5 minutes at 4° C. and supernatants were discarded. Cell pellets were resuspended with 1× RIPA buffer (Millipore) and incubated on ice for 15 minutes. Protein lysates were extracted by centrifugating at 20,000 RPM for 20 minutes at 4° C. Proteins were separated and total EGFR protein levels were quantified by Simple Western Immunoassay (ProteinSimple) using the Protein Normalization Assay Module for Jess according to the manufacturer's protocol, using a protein concentration of 0.125 μg/μl and an antibody targeting EGFR (clone #EP38Y, Abcam) diluted to 1:400. Phosphorylated EGFR protein levels were quantified with the same assay using a protein concentration of 1 μg/μl and an antibody targeting pEGFR (Y1068) (Cell Signalling) diluted to 1:25. EGFR and phosphorylated EGFR levels were normalized to the Jess Protein Normalization Reagent loading control and subsequently to the DMSO control.

For test [2], the target named is T1, EGFR. Kind of test: HTRF KinEASE-TK kinase assay, EGFR. The following applies: 3 h preincubation; for remaining activity at 1 µM: 1 μM compound, read-out: % EGFR Remaining activity vs DMSO (1 μM, 3 h); for remaining activity at 10 µM: 10 μM compound, read-out: % EGFR Remaining activity vs DMSO (10 μM, 3 h). Format: biochemical. The procedure, abridged: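 HTRF KinEASE-TK format: EGFR pre-incubated with compound at 1 and 10 uM final (0.5% DMSO) in kinase buffer with 2 mM MnCl2, 5 mM MgCl2 and 1 mM TCEP.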

T1 sequence (P00533 25-1210): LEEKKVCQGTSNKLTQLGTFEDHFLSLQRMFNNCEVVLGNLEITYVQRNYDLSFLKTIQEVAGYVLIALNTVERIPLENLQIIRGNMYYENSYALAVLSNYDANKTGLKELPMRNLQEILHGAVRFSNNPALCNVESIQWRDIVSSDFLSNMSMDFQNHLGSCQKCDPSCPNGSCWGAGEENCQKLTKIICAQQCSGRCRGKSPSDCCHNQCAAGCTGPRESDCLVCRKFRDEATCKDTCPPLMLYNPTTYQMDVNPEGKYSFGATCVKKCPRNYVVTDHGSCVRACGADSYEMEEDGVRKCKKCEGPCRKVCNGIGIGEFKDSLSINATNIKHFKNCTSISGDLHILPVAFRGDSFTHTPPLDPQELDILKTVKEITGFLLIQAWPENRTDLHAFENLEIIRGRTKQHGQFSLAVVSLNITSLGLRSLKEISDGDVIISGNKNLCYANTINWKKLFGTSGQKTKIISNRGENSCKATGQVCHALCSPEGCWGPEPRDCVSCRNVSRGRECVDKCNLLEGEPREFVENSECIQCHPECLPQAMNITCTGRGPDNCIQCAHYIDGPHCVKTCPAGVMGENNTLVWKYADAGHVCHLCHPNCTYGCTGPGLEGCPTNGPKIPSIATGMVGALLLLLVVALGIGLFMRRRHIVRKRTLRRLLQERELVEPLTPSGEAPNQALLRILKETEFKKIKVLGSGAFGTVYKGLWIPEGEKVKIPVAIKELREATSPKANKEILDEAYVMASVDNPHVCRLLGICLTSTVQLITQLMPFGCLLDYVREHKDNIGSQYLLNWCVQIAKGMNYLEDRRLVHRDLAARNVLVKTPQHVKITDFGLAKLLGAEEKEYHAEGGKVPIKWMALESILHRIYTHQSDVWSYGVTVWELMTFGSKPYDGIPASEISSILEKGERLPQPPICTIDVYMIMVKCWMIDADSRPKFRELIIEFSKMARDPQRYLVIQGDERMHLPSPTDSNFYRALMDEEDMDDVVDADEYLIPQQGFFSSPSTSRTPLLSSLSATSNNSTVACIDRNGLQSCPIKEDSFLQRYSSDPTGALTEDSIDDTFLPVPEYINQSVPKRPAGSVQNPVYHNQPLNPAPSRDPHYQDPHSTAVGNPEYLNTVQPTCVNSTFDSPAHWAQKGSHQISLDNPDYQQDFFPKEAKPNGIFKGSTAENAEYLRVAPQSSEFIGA
BTK, sequence (Q06187 whole entry): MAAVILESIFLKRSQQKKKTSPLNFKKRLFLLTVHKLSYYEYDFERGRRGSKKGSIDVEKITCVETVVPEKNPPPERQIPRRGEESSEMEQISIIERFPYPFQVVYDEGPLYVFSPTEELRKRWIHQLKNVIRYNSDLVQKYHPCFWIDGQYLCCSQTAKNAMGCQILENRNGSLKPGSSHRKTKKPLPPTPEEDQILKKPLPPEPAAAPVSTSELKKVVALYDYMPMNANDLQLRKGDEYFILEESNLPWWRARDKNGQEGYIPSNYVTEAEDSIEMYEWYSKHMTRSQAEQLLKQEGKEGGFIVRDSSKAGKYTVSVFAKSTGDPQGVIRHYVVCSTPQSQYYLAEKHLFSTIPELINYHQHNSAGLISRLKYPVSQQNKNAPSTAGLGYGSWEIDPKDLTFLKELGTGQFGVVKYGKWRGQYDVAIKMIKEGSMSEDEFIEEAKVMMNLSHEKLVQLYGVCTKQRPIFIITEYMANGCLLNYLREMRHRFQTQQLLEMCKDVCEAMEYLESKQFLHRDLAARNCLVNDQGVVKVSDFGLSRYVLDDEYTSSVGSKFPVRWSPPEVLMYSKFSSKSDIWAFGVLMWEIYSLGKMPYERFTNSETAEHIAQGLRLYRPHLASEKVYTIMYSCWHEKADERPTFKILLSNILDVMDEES
JAK3, sequence (P52333 781-1124): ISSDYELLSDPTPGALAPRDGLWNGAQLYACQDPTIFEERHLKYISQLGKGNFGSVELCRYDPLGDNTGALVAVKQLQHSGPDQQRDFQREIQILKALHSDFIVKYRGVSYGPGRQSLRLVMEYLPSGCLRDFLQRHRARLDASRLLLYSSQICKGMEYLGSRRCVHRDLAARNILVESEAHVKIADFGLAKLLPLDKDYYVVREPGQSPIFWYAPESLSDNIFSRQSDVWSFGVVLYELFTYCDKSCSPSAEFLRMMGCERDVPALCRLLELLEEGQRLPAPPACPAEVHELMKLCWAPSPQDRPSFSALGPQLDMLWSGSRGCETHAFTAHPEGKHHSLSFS
FGFR4, sequence (P22455 22-802): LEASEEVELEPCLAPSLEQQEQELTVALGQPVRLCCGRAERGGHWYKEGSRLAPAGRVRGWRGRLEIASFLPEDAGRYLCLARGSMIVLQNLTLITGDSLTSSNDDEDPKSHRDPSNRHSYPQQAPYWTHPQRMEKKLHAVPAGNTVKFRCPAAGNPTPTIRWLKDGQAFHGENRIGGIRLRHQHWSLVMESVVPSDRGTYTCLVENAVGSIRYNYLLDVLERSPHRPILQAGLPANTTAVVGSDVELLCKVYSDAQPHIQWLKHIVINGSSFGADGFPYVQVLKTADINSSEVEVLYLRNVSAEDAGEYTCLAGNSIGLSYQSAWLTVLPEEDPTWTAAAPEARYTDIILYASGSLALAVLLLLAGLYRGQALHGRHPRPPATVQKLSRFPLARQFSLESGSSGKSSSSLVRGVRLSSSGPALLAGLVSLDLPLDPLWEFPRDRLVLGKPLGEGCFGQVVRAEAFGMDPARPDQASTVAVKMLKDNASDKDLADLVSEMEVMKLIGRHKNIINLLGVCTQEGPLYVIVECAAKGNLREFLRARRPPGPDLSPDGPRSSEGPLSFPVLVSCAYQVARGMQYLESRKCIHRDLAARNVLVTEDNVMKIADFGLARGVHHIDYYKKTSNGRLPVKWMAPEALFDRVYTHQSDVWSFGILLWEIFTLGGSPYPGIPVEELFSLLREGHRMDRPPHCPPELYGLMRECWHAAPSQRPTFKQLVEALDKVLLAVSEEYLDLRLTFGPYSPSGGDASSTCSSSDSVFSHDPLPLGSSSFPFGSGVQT
BMX, sequence (P51813 whole entry): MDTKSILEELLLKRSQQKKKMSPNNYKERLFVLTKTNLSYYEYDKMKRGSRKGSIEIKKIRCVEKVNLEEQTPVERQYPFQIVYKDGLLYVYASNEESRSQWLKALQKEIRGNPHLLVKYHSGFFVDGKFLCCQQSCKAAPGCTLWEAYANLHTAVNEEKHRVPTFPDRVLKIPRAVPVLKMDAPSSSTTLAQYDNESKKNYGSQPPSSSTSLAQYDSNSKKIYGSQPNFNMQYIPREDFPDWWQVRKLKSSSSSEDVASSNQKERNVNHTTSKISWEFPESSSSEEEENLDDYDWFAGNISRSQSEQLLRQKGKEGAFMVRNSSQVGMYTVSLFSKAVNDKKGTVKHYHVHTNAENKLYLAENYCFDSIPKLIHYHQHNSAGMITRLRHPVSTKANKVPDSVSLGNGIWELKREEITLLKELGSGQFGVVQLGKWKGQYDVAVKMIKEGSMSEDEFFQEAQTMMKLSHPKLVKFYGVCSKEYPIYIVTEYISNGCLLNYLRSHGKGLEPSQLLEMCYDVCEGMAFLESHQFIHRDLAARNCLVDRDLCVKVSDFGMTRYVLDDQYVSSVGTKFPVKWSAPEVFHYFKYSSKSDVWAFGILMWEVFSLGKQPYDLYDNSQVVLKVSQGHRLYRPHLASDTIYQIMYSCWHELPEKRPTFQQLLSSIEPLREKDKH

One may read the remaining activity as the share of the control activity or signal that is left under treatment. Broadly, the IC50 is the midpoint of a concentration-inhibition curve. Turning to `Nc1ncnc2c1c(-c1ccc(Oc3ccccc3)cc1)nn2CCCNC(=O)c1c(F)c(F)c(F)c(F)c1S(N)(=O)=O` [Compound I-34, N-(3-(4-amino-3-(4-phenoxyphenyl)-1H-pyrazolo[3,4-d]pyrimidin-1-yl)propyl)-2,3,4,5-tetrafluoro-6-sulfamoylbenzamide], the remaining activity at 1 µM is less than 50% on BTK; 50 to 90% at JAK3; less than 50% at BMX; less than 50% on FGFR4; less than 50% on EGFR [2]. For the same molecule, the remaining activity at 10 µM at BTK, at JAK3, at BMX, on FGFR4 and on EGFR [2] was less than 50% each time. For the same molecule, the IC50 at BTK, on BMX (dose response) and on FGFR4 was less than 1000 nM throughout. Besides, the “pEGFR inhibition (A549, 1 μM, 24 h)” value at EGFR [1] is recorded as “X”.
Take `CN(C)S(=O)(=O)c1c(F)c(F)c(F)c(F)c1C(=O)NCCn1nc(-c2ccc(Oc3ccccc3)cc2)c2c(N)ncnc21` [Compound I-40, N-(2-(4-amino-3-(4-phenoxyphenyl)-1H-pyrazolo[3,4-d]pyrimidin-1-yl)ethyl)-2-(N,N-dimethylsulfamoyl)-3,4,5,6-tetrafluorobenzamide]: the remaining activity at 1 µM was less than 50% on BTK; greater than 90% at JAK3; less than 50% at BMX; 50 to 90% on FGFR4; less than 50% at EGFR [2]. Besides, the remaining activity at 10 µM at BTK was less than 50%; at JAK3, 50 to 90%; on BMX it was less than 50%; at FGFR4, less than 50%; at EGFR [2] it was less than 50%. Also, on BTK, the IC50 was less than 1000 nM. Also, on EGFR [1], the “pEGFR inhibition (A549, 1 μM, 24 h)” value was “X”. In addition, the “pEGFR inhibition (A549, compound concentration, 24 h)” value at EGFR [1] (compound concentration 5 μM) is “X”.
As for `COCCOc1ccc(Nc2ncc(F)c(Nc3cccc(NC(=O)c4c(F)c(F)c(F)c(F)c4S(=O)(=O)N(C)C)c3)n2)cc1` [Compound I-59, 2-(N,N-dimethylsulfamoyl)-3,4,5,6-tetrafluoro-N-(3-((5-fluoro-2-((4-(2-methoxyethoxy)phenyl)amino)pyrimidin-4-yl)amino)phenyl)benzamide], the remaining activity at 1 µM was less than 50% at BTK; 50 to 90% at JAK3; less than 50% at BMX; less than 50% on FGFR4; greater than 90% on EGFR [2]. For the same molecule, the remaining activity at 10 µM on BTK is less than 50%; on JAK3, 50 to 90%; on BMX it was less than 50%; on FGFR4 it was less than 50%; at EGFR [2] it was greater than 90%. Also, the IC50 on FGFR4 was less than 1000 nM. On EGFR [1], the “pEGFR inhibition (A549, 1 μM, 24 h)” value is “X”. Besides, the “pEGFR inhibition (A549, compound concentration, 24 h)” value on EGFR [1] (compound concentration 10 μM) is “X”.
Regarding `CN(CCn1nc(-c2ccc(Oc3ccccc3)cc2)c2c(N)ncnc21)C(=O)c1c(F)c(F)c(F)c(F)c1S(N)(=O)=O` [Compound I-33, N-(2-(4-amino-3-(4-phenoxyphenyl)-1H-pyrazolo[3,4-d]pyrimidin-1-yl)ethyl)-2,3,4,5-tetrafluoro-N-methyl-6-sulfamoylbenzamide], the remaining activity at 1 µM is less than 50% at BTK; greater than 90% at JAK3; less than 50% at BMX; 50 to 90% at FGFR4; greater than 90% at EGFR [2]. Besides, the remaining activity at 10 µM was less than 50% on BTK; 50 to 90% at JAK3; less than 50% on BMX; less than 50% on FGFR4; less than 50% on EGFR [2]. The IC50 on BTK is less than 1000 nM. Moreover, the “pEGFR inhibition (A549, 1 μM, 24 h)” value at EGFR [1] is given as “X”. The “pEGFR inhibition (A549, compound concentration, 24 h)” value at EGFR [1] (compound concentration 10 μM) is reported as “X”.
As for `COCCOc1ccc(Nc2ncc(F)c(Nc3cccc(Nc4c(F)c(F)c(F)c(F)c4[S@+](C)[O-])c3)n2)cc1` (stereo in doubt) [Compound I-63, 5-fluoro-N^2-(4-(2-methoxyethoxy)phenyl)-N^4-(3-((2,3,4,5-tetrafluoro-6-(methylsulfinyl)phenyl)amino)phenyl)pyrimidine-2,4-diamine], the remaining activity at 1 µM was less than 50% at BTK; greater than 90% on JAK3; less than 50% at BMX; greater than 90% at FGFR4; greater than 90% on EGFR [2]. For the same molecule, the remaining activity at 10 µM on BTK is 50 to 90%; on JAK3 it was 50 to 90%; at BMX, less than 50%; at FGFR4, greater than 90%; at EGFR [2] it was greater than 90%. Moreover, the “pEGFR inhibition (A549, 1 μM, 24 h)” value on EGFR [1] is recorded as “X”. Moreover, at EGFR [1] (compound concentration 10 μM), the “pEGFR inhibition (A549, compound concentration, 24 h)” value is “X”.
Turning to `CS(=O)(=O)c1c(F)c(F)c(F)c(F)c1Nc1cc2c(Nc3ccc(F)c(Cl)c3)ncnc2cc1O[C@H]1CCOC1` [Compound I-2, (S)—N^4-(3-chloro-4-fluorophenyl)-N^6-(2,3,4,5-tetrafluoro-6-(methylsulfonyl)phenyl)-7-((tetrahydrofuran-3-yl)oxy)quinazoline-4,6-diamine], the remaining activity at 1 µM on BTK is greater than 90%; at JAK3, 50 to 90%; on BMX, 50 to 90%; on FGFR4, greater than 90%; on EGFR [2] it was less than 50%. Further, the remaining activity at 10 µM on BTK was 50 to 90%; at JAK3, less than 50%; on BMX, greater than 90%; on FGFR4, 50 to 90%; at EGFR [2], less than 50%. Also, the “pEGFR inhibition (A549, 1 μM, 24 h)” value on EGFR [1] is reported as “X”. Moreover, the “pEGFR inhibition (A549, compound concentration, 24 h)” value at EGFR [1] (compound concentration 10 μM) is “X”. The IC50 on EGFR [2] (dose response, read-out: EGFR Inhibition IC50) is less than 1000 nM.
As for `Nc1ncnc2c1c(-c1ccc(Oc3ccccc3)cc1)nn2[C@@H]1CCN(S(=O)(=O)c2c(F)c(F)c(F)c(F)c2OCF)C1` [Compound I-24, (R)-3-(4-phenoxyphenyl)-1-(1-((2,3,4,5-tetrafluoro-6-(fluoromethoxy)phenyl)sulfonyl)pyrrolidin-3-yl)-1H-pyrazolo[3,4-d]pyrimidin-4-amine], the remaining activity at 1 µM on BTK is less than 50%; on JAK3 it was greater than 90%; at BMX, less than 50%; on FGFR4, less than 50%; at EGFR [2], greater than 90%. For the same molecule, the remaining activity at 10 µM was less than 50% at BTK; 50 to 90% on JAK3; less than 50% at BMX; less than 50% on FGFR4; greater than 90% at EGFR [2]. In addition, the IC50 on FGFR4 is greater than 1000 nM.
